Laboratory results from EP4631959A2, “NOVEL MINIGASTRIN-DERIVED CHOLECYSTOKININ 2 RECEPTOR BINDING MOLECULES FOR IMAGING AND TARGETED RADIOTHERAPY” (priority 2022, dated 2024).
Where two headings read alike, the source gives them in different places. Starred links: 1 amine or outer side, 2 acyl side, 3 side chain; linkers in the order of their positions; H or OH if unused. Non-standard residues stand in square brackets, D forms with d. Residues, ends and D or L forms follow the SMILES beside them. *: point of attachment. DOTAGA = O=C(O)CN1CCN(CC(=O)O)CCN(C(CCC(=O)*)C(=O)O)CCN(CC(=O)O)CC1; X2 = O=C(O)CN1CCN(CC(=O)O)CCN([C@H](CCC(=O)*)C(=O)O)CCN(CC(=O)O)CC1; Benzoyl(4-SiFtBu2) = CC(C)(C)[Si](F)(c1ccc(C(=O)*)cc1)C(C)(C)C; d(γGlu) = O=C(O)[C@@H](CCC(=O)[*:2])N[*:1]; Nle = CCCC[C@H](N)C(=O)O; dDap = NC[C@@H](N)C(=O)O

Key:
CCK-2R = molecular target: T1, CCK-2R (Rattus norvegicus, UniProt P30553); test: Determination of IC50: CCK-2R affinity on AR4-2J cells, competition with [^177Lu]Lu-DOTA-PP-F11N; format: binding
T1 construct: The CCK-2R expressing rat pancreatic tumor cells AR4-2J; host or cells: AR4-2J rat pancreatic tumor cells
T1 sequence (P30553 1-452): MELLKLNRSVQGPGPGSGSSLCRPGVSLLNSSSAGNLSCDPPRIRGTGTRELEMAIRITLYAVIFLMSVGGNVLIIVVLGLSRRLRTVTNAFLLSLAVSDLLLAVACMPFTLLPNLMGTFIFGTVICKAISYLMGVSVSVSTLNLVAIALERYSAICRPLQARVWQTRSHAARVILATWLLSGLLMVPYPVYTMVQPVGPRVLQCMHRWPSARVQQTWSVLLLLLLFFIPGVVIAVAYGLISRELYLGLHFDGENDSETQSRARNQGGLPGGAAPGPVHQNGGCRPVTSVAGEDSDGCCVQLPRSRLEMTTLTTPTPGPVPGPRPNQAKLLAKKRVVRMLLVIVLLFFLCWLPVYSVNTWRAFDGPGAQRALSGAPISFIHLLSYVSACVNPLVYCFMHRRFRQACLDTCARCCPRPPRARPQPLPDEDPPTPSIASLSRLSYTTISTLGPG
Method in brief: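 Competitive displacement of 0.3 pmol/well [177Lu]Lu-DOTA-PP-F11N by compounds (10^-10 to 10^-4 M) on AR4-2J cells in BSA-supplemented medium, 3 h at 37 °C. Free label was collected from medium plus PBS rinse, and cell-bound label was recovered with 1 M NaOH, both measured by γ-counter. Each IC50 was determined twice, in triplicate.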

[1] = n-Octanol-PBS distribution coefficient (logD7.4); format: physicochemical; conditions: pH = 7.4, ^177Lu-labeled
Experimental: Approximately 1 MBq of the labeled tracer was dissolved in 1 mL of a 1/1 mixture (v/v) of phosphate buffered saline (PBS, pH = 7.4) and n-octanol in an Eppendorf tube (1.5 mL). After vigorous mixing of the suspension for 3 min at rt, the vial was centrifuged at 9,000 rpm for 5 min (Biofuge 15, Heraeus Sepatech, Osterode, Germany) and 200 µL aliquots of both layers were measured in a γ-counter. The experiment was repeated at least five times.

[2] = read-out: IC50 [nM] (n = 3), ^natLu-labeled; AR4-2J cells; ^natLu-labeled
[3] = AR4-2J cells; ^natLu-labeled; read-out: IC50 [nM] (n = 3), ^natLu-labeled

**Q.** With CCCC[C@H](NC(=O)[C@H](Cc1c[nH]c2ccccc12)NC(=O)CNC(=O)[C@H](Cc1ccc(O)cc1)NC(=O)[C@H](C)NC(=O)[C@@H](CCC(=O)O)NC(=O)[C@@H](CCC(=O)O)NC(=O)[C@@H](CNC(=O)c1ccc([Si](F)(C(C)(C)C)C(C)(C)C)cc1)NC(=O)[C@@H](CCC(=O)O)NC(=O)[C@@H](CCC(=O)O)NC(=O)[C@@H](CCC(=O)O)NC(=O)[C@@H](CCC(=O)O)NC(=O)CCC(C(=O)O)N1CCN(CC(=O)O)CCN(CC(=O)O)CCN(CC(=O)O)CC1)C(=O)N[C@@H](CC(=O)O)C(=O)N[C@@H](Cc1ccccc1)C(N)=O (stereo partly shown) [DOTAGA-MG-SiFA-7, DOTAGA-glu-[dap(SiFA)^4]F11N] ({DOTAGA}-[dE][dE][dE][dE][dDap](Benzoyl(4-SiFtBu2))[dE][dE]AYGW[Nle]DF-NH2) as the molecule, how does the IC50 (CCK-2R; [2]) read?
**A.** 156 ± 4 nM

**Q.** And the “logD7.4 (n ≥ 5), ^177Lu-labeled” value [1]?
**A.** −2.03 ± 0.10

**Q.** With CCCC[C@H](NC(=O)[C@H](Cc1c[nH]c2ccccc12)NC(=O)CNC(=O)[C@H](Cc1ccc(O)cc1)NC(=O)[C@H](C)NC(=O)[C@@H](CCC(=O)O)NC(=O)[C@@H](CCC(=O)O)NC(=O)[C@@H](CCC(=O)O)NC(=O)[C@@H](CNC(=O)c1ccc([Si](F)(C(C)(C)C)C(C)(C)C)cc1)NC(=O)[C@@H](CCC(=O)O)NC(=O)[C@@H](CCC(=O)O)NC(=O)[C@@H](CCC(=O)O)NC(=O)CCC(C(=O)O)N1CCN(CC(=O)O)CCN(CC(=O)O)CCN(CC(=O)O)CC1)C(=O)N[C@@H](CC(=O)O)C(=O)N[C@@H](Cc1ccccc1)C(N)=O (stereo partly shown) [DOTAGA-MG-SiFA-8, DOTAGA-glu-[dap(SiFA)^3]F11N] ({DOTAGA}-[dE][dE][dE][dDap](Benzoyl(4-SiFtBu2))[dE][dE][dE]AYGW[Nle]DF-NH2) as the molecule, how does the IC50 (CCK-2R; [2]) read?
**A.** 185 ± 14 nM

**Q.** And the “logD7.4 (n ≥ 5), ^177Lu-labeled” value [1]?
**A.** −2.19 ± 0.08

**Q.** With CCCC[C@H](NC(=O)[C@H](Cc1c[nH]c2ccccc12)NC(=O)CNC(=O)[C@H](Cc1ccc(O)cc1)NC(=O)[C@H](C)NC(=O)[C@@H](CCC(=O)O)NC(=O)[C@@H](CCC(=O)O)NC(=O)[C@@H](CCC(=O)O)NC(=O)[C@@H](CCC(=O)O)NC(=O)[C@@H](CNC(=O)c1ccc([Si](F)(C(C)(C)C)C(C)(C)C)cc1)NC(=O)[C@@H](CCC(=O)O)NC(=O)[C@@H](CCC(=O)O)NC(=O)CCC(C(=O)O)N1CCN(CC(=O)O)CCN(CC(=O)O)CCN(CC(=O)O)CC1)C(=O)N[C@@H](CC(=O)O)C(=O)N[C@@H](Cc1ccccc1)C(N)=O (stereo partly shown) [DOTAGA-MG-SiFA-9, DOTAGA-glu-[dap(SiFA)^2]F11N] ({DOTAGA}-[dE][dE][dDap](Benzoyl(4-SiFtBu2))[dE][dE][dE][dE]AYGW[Nle]DF-NH2) as the molecule, how does the IC50 (CCK-2R; [2]) read?
**A.** 90 ± 2.3 nM

**Q.** What about the “logD7.4 (n ≥ 5), ^177Lu-labeled” value [1] of the same molecule?
**A.** −2.67 ± 0.05

**Q.** Which results are given for CCCC[C@H](NC(=O)[C@H](Cc1c[nH]c2ccccc12)NC(=O)CNC(=O)[C@H](Cc1ccc(O)cc1)NC(=O)[C@H](C)NC(=O)[C@@H](CCC(=O)O)NC(=O)[C@@H](CCC(=O)O)NC(=O)[C@@H](CCC(=O)O)NC(=O)[C@@H](CCC(=O)O)NC(=O)[C@@H](CCC(=O)O)NC(=O)[C@@H](CNC(=O)c1ccc([Si](F)(C(C)(C)C)C(C)(C)C)cc1)NC(=O)[C@@H](CCC(=O)O)NC(=O)CCC(C(=O)O)N1CCN(CC(=O)O)CCN(CC(=O)O)CCN(CC(=O)O)CC1)C(=O)N[C@@H](CC(=O)O)C(=O)N[C@@H](Cc1ccccc1)C(N)=O (stereo partly shown) [DOTAGA-MG-SiFA-10, DOTAGA-glu-[dap(SiFA)^1]F11N] ({DOTAGA}-[dE][dDap](Benzoyl(4-SiFtBu2))[dE][dE][dE][dE][dE]AYGW[Nle]DF-NH2)?
**A.** IC50 (CCK-2R; [2]): 56.8 ± 6.4 nM; logD7.4 (n ≥ 5), ^177Lu-labeled [1]: −2.22 ± 0.08

**Q.** What does the source list for CCCC[C@H](NC(=O)[C@H](Cc1c[nH]c2ccccc12)NC(=O)CNC(=O)[C@H](Cc1ccc(O)cc1)NC(=O)[C@H](C)NC(=O)[C@@H](CCC(=O)O)NC(=O)[C@@H](CCC(=O)O)NC(=O)[C@@H](CCC(=O)O)NC(=O)[C@@H](CCC(=O)O)NC(=O)[C@@H](CCC(=O)O)NC(=O)[C@@H](CCC(=O)O)NC(=O)[C@@H](CNC(=O)c1ccc([Si](F)(C(C)(C)C)C(C)(C)C)cc1)NC(=O)CCC(C(=O)O)N1CCN(CC(=O)O)CCN(CC(=O)O)CCN(CC(=O)O)CC1)C(=O)N[C@@H](CC(=O)O)C(=O)N[C@@H](Cc1ccccc1)C(N)=O (stereo partly shown) [DOTAGA-MG-SiFA-11, DOTAGA-dap(SiFA)-F11N] ({DOTAGA}-[dDap](Benzoyl(4-SiFtBu2))[dE][dE][dE][dE][dE][dE]AYGW[Nle]DF-NH2)?
**A.** IC50 (CCK-2R; [2]): 75.7 ± 10.7 nM; logD7.4 (n ≥ 5), ^177Lu-labeled [1]: −2.63 ± 0.08

**Q.** For CCCC[C@H](NC(=O)[C@H](Cc1c[nH]c2ccccc12)NC(=O)CNC(=O)[C@H](Cc1ccc(O)cc1)NC(=O)[C@H](C)NC(=O)[C@@H](CNC(=O)c1ccc([Si](F)(C(C)(C)C)C(C)(C)C)cc1)NC(=O)CC[C@@H](NC(=O)CC[C@@H](NC(=O)CC[C@@H](NC(=O)CC[C@@H](NC(=O)CC[C@@H](NC(=O)CC[C@@H](NC(=O)CC[C@H](C(=O)O)N1CCN(CC(=O)O)CCN(CC(=O)O)CCN(CC(=O)O)CC1)C(=O)O)C(=O)O)C(=O)O)C(=O)O)C(=O)O)C(=O)O)C(=O)N[C@@H](CC(=O)O)C(=O)N[C@@H](Cc1ccccc1)C(N)=O [DOTAGA-MG-SiFA-13, DOTAGA-γ-glu-[dap(SiFA)^6]γ-F11N] ({X2-d(γGlu)-d(γGlu)-d(γGlu)-d(γGlu)-d(γGlu)-d(γGlu)}-[dDap](Benzoyl(4-SiFtBu2))AYGW[Nle]DF-NH2), which IC50 (CCK-2R; [3]) is on record?
**A.** 863 ± 147 nM

**Q.** What about the “logD7.4 (n ≥ 5), ^177Lu-labeled” value [1] of the same molecule?
**A.** −2.15 ± 0.08

**Q.** Which IC50 (CCK-2R; [3]) does the source give for CCCC[C@H](NC(=O)[C@H](Cc1c[nH]c2ccccc12)NC(=O)CNC(=O)[C@H](Cc1ccc(O)cc1)NC(=O)[C@H](C)NC(=O)CC[C@@H](NC(=O)[C@@H](CNC(=O)c1ccc([Si](F)(C(C)(C)C)C(C)(C)C)cc1)NC(=O)CC[C@@H](NC(=O)CC[C@@H](NC(=O)CC[C@@H](NC(=O)CC[C@@H](NC(=O)CC[C@@H](NC(=O)CC[C@H](C(=O)O)N1CCN(CC(=O)O)CCN(CC(=O)O)CCN(CC(=O)O)CC1)C(=O)O)C(=O)O)C(=O)O)C(=O)O)C(=O)O)C(=O)O)C(=O)N[C@@H](CC(=O)O)C(=O)N[C@@H](Cc1ccccc1)C(N)=O [DOTAGA-MG-SiFA-14, DOTAGA-γ-glu-[dap(SiFA)^5]γ-F11N] ({X2-d(γGlu)-d(γGlu)-d(γGlu)-d(γGlu)-d(γGlu)}-[dDap](Benzoyl(4-SiFtBu2))[d(γGlu)]AYGW[Nle]DF-NH2) here?
**A.** 111 ± 13 nM

**Q.** And the “logD7.4 (n ≥ 5), ^177Lu-labeled” value [1]?
**A.** −2.23 ± 0.07

**Q.** Which IC50 (CCK-2R; [3]) does the source give for CCCC[C@H](NC(=O)[C@H](Cc1c[nH]c2ccccc12)NC(=O)CNC(=O)[C@H](Cc1ccc(O)cc1)NC(=O)[C@H](C)NC(=O)CC[C@@H](NC(=O)CC[C@@H](NC(=O)[C@@H](CNC(=O)c1ccc([Si](F)(C(C)(C)C)C(C)(C)C)cc1)NC(=O)CC[C@@H](NC(=O)CC[C@@H](NC(=O)CC[C@@H](NC(=O)CC[C@@H](NC(=O)CC[C@H](C(=O)O)N1CCN(CC(=O)O)CCN(CC(=O)O)CCN(CC(=O)O)CC1)C(=O)O)C(=O)O)C(=O)O)C(=O)O)C(=O)O)C(=O)O)C(=O)N[C@@H](CC(=O)O)C(=O)N[C@@H](Cc1ccccc1)C(N)=O [DOTAGA-MG-SiFA-15, DOTAGA-γ-glu-[dap(SiFA)^4]γ-F11N] ({X2-d(γGlu)-d(γGlu)-d(γGlu)-d(γGlu)}-[dDap](Benzoyl(4-SiFtBu2))[d(γGlu)][d(γGlu)]AYGW[Nle]DF-NH2) here?
**A.** 89.7 ± 14.5 nM

**Q.** What about the “logD7.4 (n ≥ 5), ^177Lu-labeled” value [1] of the same molecule?
**A.** −2.34 ± 0.05
